Experimental data reported in ChEMBL document CHEMBL5576154, “Targeted suppression of oral squamous cell carcinoma by pyrimidine-tethered quinoxaline derivatives” (RSC Med Chem, 2024).

Test system: CAL-27
Test: Cytotoxicity against human CAL-27 cells incubated for 24 hrs by Alamar blue assay
Conditions: CAL-27, 24 h

SMILES	IC50 [µM]
Clc1cc2ncc(-c3cnc4ncccn34)nc2cc1Cl	25.3
O=C(c1ccccc1)c1ccc2ncc(-c3cnc4ccccn34)nc2c1	14.6
c1ccc2nc(-c3cnc4ccccn34)cnc2c1	> 100
FC(F)(F)c1ccc(-c2ccn3c(-c4cnc5ccccc5n4)cnc3n2)cc1	> 100
Cc1ccc(-c2ccn3c(-c4cnc5ccccc5n4)cnc3n2)cc1	64.8
c1ccc2nc(-c3cnc4ncccn34)cnc2c1	> 100
CS(=O)(=O)c1ccc(-c2ccn3c(-c4cnc5ccccc5n4)cnc3n2)cc1	> 100
Brc1ccc2ncc(-c3cnc4ncccn34)nc2c1	21.6
Clc1ccc2ncc(-c3cnc4ncccn34)nc2c1	> 100
Clc1ccc2ncc(-c3cnc4ccccn34)nc2c1	12.8
Clc1ccccc1-c1ccn2c(-c3cnc4ccccc4n3)cnc2n1	13.7
O=C(c1ccccc1)c1ccc2ncc(-c3cnc4ncccn34)nc2c1	17
Cc1ccc2ncc(-c3cnc4ccccn34)nc2c1	18.5
O=[N+]([O-])c1ccc2ncc(-c3cnc4ccccn34)nc2c1	27.2
c1ccc(-c2ccn3c(-c4cnc5ccccc5n4)cnc3n2)cc1	10.3
Fc1ccc(-c2ccn3c(-c4cnc5ccccc5n4)cnc3n2)cc1	> 100
Fc1ccccc1-c1ccn2c(-c3cnc4ccccc4n3)cnc2n1	> 100
Fc1ccc2ncc(-c3cnc4ncccn34)nc2c1	> 100
Clc1ccc(-c2ccn3c(-c4cnc5ccccc5n4)cnc3n2)c(Cl)c1	> 100
Fc1ccc2ncc(-c3cnc4ccccn34)nc2c1	> 100
Clc1cc2ncc(-c3cnc4ccccn34)nc2cc1Cl	15.1
Brc1ccc2ncc(-c3cnc4ccccn34)nc2c1	16
O=[N+]([O-])c1ccc2ncc(-c3cnc4ncccn34)nc2c1	19.7
Cc1ccc2ncc(-c3cnc4n3C=C=C=N4)nc2c1	> 100

Target: Pyruvate kinase PKM (Homo sapiens, UniProt P14618)
Sequence (P14618 whole entry): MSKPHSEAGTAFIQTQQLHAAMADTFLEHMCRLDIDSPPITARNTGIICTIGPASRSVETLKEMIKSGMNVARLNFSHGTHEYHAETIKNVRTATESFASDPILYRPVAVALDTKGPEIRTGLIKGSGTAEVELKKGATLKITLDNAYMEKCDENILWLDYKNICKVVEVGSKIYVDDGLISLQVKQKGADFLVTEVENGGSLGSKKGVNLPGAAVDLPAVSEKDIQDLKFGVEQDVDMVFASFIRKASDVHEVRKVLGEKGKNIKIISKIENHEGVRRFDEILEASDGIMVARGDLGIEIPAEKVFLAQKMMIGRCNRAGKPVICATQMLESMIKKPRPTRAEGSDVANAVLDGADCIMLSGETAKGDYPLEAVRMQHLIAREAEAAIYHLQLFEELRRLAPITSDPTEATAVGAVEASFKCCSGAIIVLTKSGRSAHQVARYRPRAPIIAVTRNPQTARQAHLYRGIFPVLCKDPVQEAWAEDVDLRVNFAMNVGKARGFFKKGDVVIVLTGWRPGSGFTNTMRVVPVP
Test: Activation of PKM2 (unknown origin) by LDH enzyme coupled assay
Conditions: not given

EC50 [µM]	SMILES
0.241	O=S(=O)(c1ccc2c(c1)OCCO2)N1CCN(S(=O)(=O)c2c(F)cccc2F)CC1

Target: Vascular endothelial growth factor receptor 2 (Homo sapiens, UniProt P35968)
Sequence (P35968 whole entry): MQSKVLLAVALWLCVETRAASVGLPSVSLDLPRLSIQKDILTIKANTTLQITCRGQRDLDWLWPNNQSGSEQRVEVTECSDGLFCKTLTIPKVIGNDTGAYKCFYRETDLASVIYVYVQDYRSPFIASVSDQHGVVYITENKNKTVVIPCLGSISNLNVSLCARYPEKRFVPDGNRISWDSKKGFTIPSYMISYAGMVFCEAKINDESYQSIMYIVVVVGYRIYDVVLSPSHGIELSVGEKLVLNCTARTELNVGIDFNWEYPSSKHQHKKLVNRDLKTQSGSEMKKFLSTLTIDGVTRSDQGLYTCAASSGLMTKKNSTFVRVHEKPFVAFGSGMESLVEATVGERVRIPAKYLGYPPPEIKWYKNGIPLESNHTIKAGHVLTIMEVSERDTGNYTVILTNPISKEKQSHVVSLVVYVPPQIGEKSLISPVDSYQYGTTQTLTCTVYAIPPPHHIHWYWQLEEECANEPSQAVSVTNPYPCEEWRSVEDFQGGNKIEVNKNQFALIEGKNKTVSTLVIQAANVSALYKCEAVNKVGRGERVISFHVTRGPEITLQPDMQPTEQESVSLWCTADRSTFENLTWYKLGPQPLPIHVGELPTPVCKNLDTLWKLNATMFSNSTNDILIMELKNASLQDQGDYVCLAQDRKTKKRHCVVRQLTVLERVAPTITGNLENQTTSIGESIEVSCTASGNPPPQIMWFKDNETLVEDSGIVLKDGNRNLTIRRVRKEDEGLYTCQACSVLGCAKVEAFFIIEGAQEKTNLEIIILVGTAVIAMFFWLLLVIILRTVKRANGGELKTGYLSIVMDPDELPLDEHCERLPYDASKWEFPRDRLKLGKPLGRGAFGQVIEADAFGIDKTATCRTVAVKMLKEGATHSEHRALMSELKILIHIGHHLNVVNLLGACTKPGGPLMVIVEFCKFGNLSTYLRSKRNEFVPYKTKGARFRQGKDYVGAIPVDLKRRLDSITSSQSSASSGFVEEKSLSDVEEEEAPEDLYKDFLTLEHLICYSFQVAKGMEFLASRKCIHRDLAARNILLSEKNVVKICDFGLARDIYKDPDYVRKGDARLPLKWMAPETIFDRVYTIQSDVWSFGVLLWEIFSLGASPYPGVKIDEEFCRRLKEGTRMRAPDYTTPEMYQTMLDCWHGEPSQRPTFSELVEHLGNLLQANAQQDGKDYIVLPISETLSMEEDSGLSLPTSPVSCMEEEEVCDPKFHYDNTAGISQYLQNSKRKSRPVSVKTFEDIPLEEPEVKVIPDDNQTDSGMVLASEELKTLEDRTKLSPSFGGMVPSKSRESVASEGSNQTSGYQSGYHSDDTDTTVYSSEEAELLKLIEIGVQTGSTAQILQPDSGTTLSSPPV
Test: Inhibition of human VEGFR2 by ELISA
Conditions: not given

IC50 [µM]	SMILES
0.0027	Cc1nc2ccccc2n(CC(=O)Nc2ccc(C(=O)Nc3cccc(Cl)c3)cc2)c1=O

Test system: CAL-27
Test: Induction of apoptosis in human CAL-27 cells assessed as viable cells at IC50 concentration incubated for 24 hrs by Annexin V-FITC/PI staining based flow cytometry analysis (reference value: 97.36%)
Format: functional
Conditions: not given

SMILES	Activity [%]
Clc1ccc(-c2ccn3c(-c4cnc5ccccc5n4)cnc3n2)cc1	79.07

Test system: not listed separately
Test: Cytotoxicity against normal epithelial cells (unknown origin) incubated for 24 hrs by Alamar blue assay
Format: toxicity, cell-based, Epithelial cell
Conditions: not given

SMILES	IC50 at 24 h [µM]
Clc1cc2ncc(-c3cnc4ncccn34)nc2cc1Cl	15.8
O=C(c1ccccc1)c1ccc2ncc(-c3cnc4ccccn34)nc2c1	24.9
Brc1ccc2ncc(-c3cnc4ncccn34)nc2c1	15.2
Clc1ccc2ncc(-c3cnc4ccccn34)nc2c1	19.2
Clc1ccccc1-c1ccn2c(-c3cnc4ccccc4n3)cnc2n1	133
O=C(c1ccccc1)c1ccc2ncc(-c3cnc4ncccn34)nc2c1	16.7
Cc1ccc2ncc(-c3cnc4ccccn34)nc2c1	22.5
O=[N+]([O-])c1ccc2ncc(-c3cnc4ccccn34)nc2c1	20.8
c1ccc(-c2ccn3c(-c4cnc5ccccc5n4)cnc3n2)cc1	47.5
Clc1cc2ncc(-c3cnc4ccccn34)nc2cc1Cl	23.9
Brc1ccc2ncc(-c3cnc4ccccn34)nc2c1	20.9
O=[N+]([O-])c1ccc2ncc(-c3cnc4ncccn34)nc2c1	18.3

Test system: not listed separately
Test: Antiproliferative activity against OSCC (unknown origin)
Format: functional, cell-based
Conditions: Oral cancer cell

SMILES	IC50 [µM]
COc1ccc(OC)c(C(=O)/C=C/c2ccc3nccnc3c2)c1	7.81
